Test results taken from the NIST ThermoML archive (doi:10.1021/je800110r).

Conditions: 323.15 K, Liquid, Vibrating tube method

CCCCCCCCCC [decane]
Conditions	mass density [kg/m3]
19981 kPa	723.9
20414 kPa	724.1
20537 kPa	724.2
20652 kPa	724.2
20695 kPa	724.1
20721 kPa	724.3
20740 kPa	724.4
20766 kPa	724.4
20799 kPa	724.3
20826 kPa	724.5
20842 kPa	724.5
20862 kPa	724.5
20893 kPa	724.5
20916 kPa	724.4
20949 kPa	724.5
20970 kPa	724.6
20990 kPa	724.5
21020 kPa	724.4
21044 kPa	724.5
21064 kPa	724.7
21088 kPa	724.5
21254 kPa	724.7
21289 kPa	724.7
21309 kPa	724.8
21334 kPa	724.7
21558 kPa	724.9
21597 kPa	725
21615 kPa	724.9
21681 kPa	725
21707 kPa	725.1
21732 kPa	725.1
21754 kPa	725.1
21790 kPa	725.1
21819 kPa	725.1
21845 kPa	725.1
21867 kPa	725.2
21896 kPa	725.2
21926 kPa	725.2
21955 kPa	725.2
21989 kPa	725.3
22012 kPa	725.3
22035 kPa	725.2
22072 kPa	725.4
22094 kPa	725.2
22131 kPa	725.4
22154 kPa	725.4
22183 kPa	725.4
22207 kPa	725.4
22236 kPa	725.3
22271 kPa	725.5
22302 kPa	725.5
22328 kPa	725.5
22359 kPa	725.5
22383 kPa	725.5
22410 kPa	725.6
22448 kPa	725.6
22471 kPa	725.6
22498 kPa	725.7
22533 kPa	725.6
22563 kPa	725.7
22583 kPa	725.8
22622 kPa	725.6
22654 kPa	725.8
22682 kPa	725.7
23638 kPa	726.6
23679 kPa	726.7
24027 kPa	726.8
24056 kPa	726.8
24083 kPa	726.8
24123 kPa	726.9
24146 kPa	726.8
24177 kPa	726.9
24209 kPa	727
24240 kPa	726.9
24281 kPa	727
24323 kPa	727
24359 kPa	727
24392 kPa	727
24425 kPa	727
24463 kPa	727
24511 kPa	727.1
24544 kPa	727.1
24568 kPa	727.3
24605 kPa	727.2
24671 kPa	727.3
25856 kPa	728
25903 kPa	728.1
25945 kPa	728.2
25978 kPa	728.2
26015 kPa	728.1
26052 kPa	728.2
26084 kPa	728.3
26113 kPa	728.2
26150 kPa	728.3
26239 kPa	728.3
26279 kPa	728.4
26309 kPa	728.5
26382 kPa	728.5
26425 kPa	728.4
26468 kPa	728.7
26506 kPa	728.5
26540 kPa	728.6
26579 kPa	728.6
26618 kPa	728.6
26657 kPa	728.8
26692 kPa	728.7
27084 kPa	728.9
27120 kPa	729
27152 kPa	729.1
27187 kPa	729.1
27223 kPa	729.1
27259 kPa	729.1
27290 kPa	729.1
27331 kPa	729.1
27727 kPa	729.5
27833 kPa	729.5
28265 kPa	729.7
28432 kPa	729.9
29106 kPa	730.4
29187 kPa	730.5
29218 kPa	730.5
29260 kPa	730.5
29336 kPa	730.6
29452 kPa	730.6
29479 kPa	730.7
29510 kPa	730.7
29547 kPa	730.7
29594 kPa	730.7
31137 kPa	731.8
31166 kPa	731.8
31206 kPa	731.8
32493 kPa	732.8
32550 kPa	732.8
32582 kPa	732.7
32606 kPa	732.8
32634 kPa	732.8
32659 kPa	732.7
